Reference: PubChem BioAssay AID624129 (Sanford-Burnham Center for Chemical Genomics, 2012)
Calls of active or inactive are those of the source. The rule behind the calls is not given here.

Tests used:
Test in all cases: CXCR6 receptor antagonists, dose response, cell-based, beta-arrestin, DiscoveRx, APJ panel, uHTS hits (AID 624129)
[1] = target: Apelin receptor (Homo sapiens) (UniProt P35414); details: CXCR6 beta-arrestin (DiscoveRx) antagonist cell assay, APJ
[2] = target: C-C chemokine receptor type 6 (Homo sapiens) (UniProt P51684); details: CXCR6 beta-arrestin (DiscoveRx) antagonist cell assay
[3] = target: C-X-C chemokine receptor type 6 (Homo sapiens) (UniProt O00574); details: CXCR6 beta-arrestin (DiscoveRx) antagonist cell assay
[4] = target: Beta-galactosidase (Escherichia coli) (UniProt Q8VNN2); details: CXCR6 beta-arrestin (DiscoveRx) antagonist cell assay, b-galactosidase
[5] = dose range 1, mean IC50 across replicates
[6] = CCR6, dose range 1, mean IC50 across replicates
[7] = CXCR6, dose range 1, mean IC50 across replicates
[8] = CXCR6, run 1, dose range 2, at 80 µM (top of the series)

Beta-galactosidase (Escherichia coli), sequence (Q8VNN2 whole entry, looked up): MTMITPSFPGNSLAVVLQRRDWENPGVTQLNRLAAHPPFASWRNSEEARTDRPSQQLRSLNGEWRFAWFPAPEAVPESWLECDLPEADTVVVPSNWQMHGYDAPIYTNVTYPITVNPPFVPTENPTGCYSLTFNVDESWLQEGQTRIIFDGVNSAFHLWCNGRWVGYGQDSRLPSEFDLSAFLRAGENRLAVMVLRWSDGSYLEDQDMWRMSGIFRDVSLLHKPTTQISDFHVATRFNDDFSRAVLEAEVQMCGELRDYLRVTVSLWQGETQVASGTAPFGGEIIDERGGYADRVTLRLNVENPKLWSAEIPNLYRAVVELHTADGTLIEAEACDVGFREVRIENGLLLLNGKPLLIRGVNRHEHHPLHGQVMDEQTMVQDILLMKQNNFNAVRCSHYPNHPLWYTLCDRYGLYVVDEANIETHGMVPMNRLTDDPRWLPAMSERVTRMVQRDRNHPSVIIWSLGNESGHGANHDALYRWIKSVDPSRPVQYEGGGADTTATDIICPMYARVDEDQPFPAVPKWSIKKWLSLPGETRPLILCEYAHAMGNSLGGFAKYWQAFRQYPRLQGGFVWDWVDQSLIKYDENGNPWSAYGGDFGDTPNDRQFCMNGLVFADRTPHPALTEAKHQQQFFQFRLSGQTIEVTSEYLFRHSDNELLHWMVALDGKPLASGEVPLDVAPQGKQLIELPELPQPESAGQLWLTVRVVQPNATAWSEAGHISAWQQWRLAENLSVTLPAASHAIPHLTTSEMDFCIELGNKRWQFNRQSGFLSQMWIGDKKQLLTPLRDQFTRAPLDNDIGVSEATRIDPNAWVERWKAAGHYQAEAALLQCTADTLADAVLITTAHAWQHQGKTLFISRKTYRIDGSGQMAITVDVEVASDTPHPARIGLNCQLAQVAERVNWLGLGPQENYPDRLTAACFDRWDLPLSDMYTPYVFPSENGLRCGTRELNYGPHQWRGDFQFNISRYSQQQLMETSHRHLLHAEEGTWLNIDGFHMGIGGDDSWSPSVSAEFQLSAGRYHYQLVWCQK
C-X-C chemokine receptor type 6 (Homo sapiens), sequence (O00574 whole entry, looked up): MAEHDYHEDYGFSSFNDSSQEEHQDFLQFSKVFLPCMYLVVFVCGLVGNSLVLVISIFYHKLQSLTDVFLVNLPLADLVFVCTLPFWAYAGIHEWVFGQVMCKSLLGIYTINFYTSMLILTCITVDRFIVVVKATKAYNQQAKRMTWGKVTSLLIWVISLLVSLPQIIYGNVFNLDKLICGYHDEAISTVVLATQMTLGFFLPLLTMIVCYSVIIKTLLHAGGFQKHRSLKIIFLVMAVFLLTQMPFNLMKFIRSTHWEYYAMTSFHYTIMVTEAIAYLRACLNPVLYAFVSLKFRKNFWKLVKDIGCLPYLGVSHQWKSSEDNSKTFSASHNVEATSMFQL

Row | SMILES | IC50 ([1]; dose range 1) | IC50 [1, 5] | IC50 ([1]; run 2, dose range 1) | IC50 ([1]; run 3, dose range 1) | IC50 ([2]; CCR6, dose range 1) | IC50 [2, 6] | IC50 ([2]; CCR6, run 2, dose range 1) | IC50 ([3]; CXCR6, dose range 1) | IC50 [3, 7] | inhibition [3, 8] | IC50 ([3]; CXCR6, run 2, dose range 1) | IC50 ([4]; dose range 1) | IC50 [4, 5] | IC50 ([3]; CXCR6, run 1, dose range 2) | IC50 ([3]; CXCR6, run 2, dose range 2) | inhibition ([3]; CXCR6, run 1, dose range 2, at 40 µM (top of the series))
1 | COc1cc2c(cc1OC)C1(CCCC1)CNC2c1cccc([N+](=O)[O-])c1 (stereo not drawn) | 19.9 µM | 21.9 µM | 21 µM | 24.6 µM | 11.9 µM | 12.4 µM | 13 µM | inactive | 14.1 µM | 126% | 12 µM | > 80 µM (inactive) | > 80 µM | – | – | –
2 | O=C1C=CC(=O)N1Cc1ccccc1 | 12 µM | 11 µM | 11.4 µM | 9.67 µM | 6.91 µM | 7.21 µM | 7.51 µM | 10.8 µM | 8.3 µM | 122% | 5.84 µM | > 80 µM (inactive) | > 80 µM | – | – | –
3 | Cc1ccc(C(=O)CNc2ccc(F)cc2)cc1 | 0.364 µM | 0.281 µM | 0.236 µM | 0.242 µM | 0.29 µM | 0.271 µM | 0.251 µM | 0.476 µM | 0.435 µM | 113% | 0.395 µM | > 80 µM (inactive) | > 80 µM | – | – | –
4 | CCN(CC)CC(C)(C)C(=O)/C=C/c1ccc(/C=C/C(=O)C(C)(C)CN(CC)CC)cc1 | 4.46 µM | 4.05 µM | 3.91 µM | 3.78 µM | 2.76 µM | 2.87 µM | 2.98 µM | 3.11 µM | 3.27 µM | – | 2.99 µM | > 80 µM (inactive) | > 80 µM | 3.64 µM | 3.35 µM | –
5 | Cc1nnc(Sc2cc(NCCCO)c([N+](=O)[O-])c3nonc23)s1 | 12.9 µM | 11.6 µM | 11.3 µM | 10.6 µM | 8.94 µM | 8.16 µM | 7.38 µM | 7.25 µM | 7.84 µM | – | 9.54 µM | > 80 µM (inactive) | > 80 µM | 8.37 µM | 6.2 µM | –
6 | FC(F)(F)c1cnc(NNC(=S)Nc2ccc(Cl)cc2)c(Cl)c1 | 12.3 µM | 12.6 µM | 17 µM | 8.55 µM | 10.9 µM | 10.5 µM | 10.1 µM | inactive | 12.1 µM | – | 14.5 µM | 40.5 µM | 40.5 µM | 7.71 µM | 14.1 µM | –
7 | CCO[C@@H]1OC(C(=O)N2CCN(Cc3ccccc3)CC2)=C[C@H](c2ccc(Br)cc2)[C@H]1CCCO | 16.6 µM | 19.4 µM | 21.1 µM | 20.4 µM | 11.4 µM | 11.5 µM | 11.6 µM | inactive | 12.1 µM | 126% | 9.21 µM | > 80 µM (inactive) | > 80 µM | – | – | –
8 | Cc1cc(C)c2c(=O)n(CC(=O)Nc3cccc(Cl)c3C)sc2n1 | 1.69 µM | 3.11 µM | 5.55 µM | 2.1 µM | 1.85 µM | 2.69 µM | 3.52 µM | 2.68 µM | 2.42 µM | – | 2.16 µM | > 80 µM (inactive) | > 80 µM | – | – | 96.5%
9 | CNc1cc(Cl)c2nonc2c1[N+](=O)[O-] | 5.88 µM | 8.61 µM | 4.89 µM | 15.1 µM | 3.13 µM | 3.29 µM | 3.46 µM | 3.61 µM | 3.39 µM | – | 4.12 µM | > 80 µM (inactive) | > 80 µM | 3.02 µM | 2.83 µM | –
10 | Cc1ccc2c(C)ccc(O)c2n1 | 5.26 µM | 5.92 µM | 6.22 µM | 6.29 µM | 4.94 µM | 5.41 µM | 5.87 µM | 4.91 µM | 5.07 µM | – | 5.82 µM | > 80 µM (inactive) | > 80 µM | 4.36 µM | 5.2 µM | –
11 | O=C(Nc1nccs1)c1sc2cc(Cl)ccc2c1Cl | 48.2 µM | 46.8 µM | 45.4 µM | > 80 µM | 9.63 µM | 10.1 µM | 10.6 µM | inactive | 19 µM | – | 46.1 µM | > 80 µM (inactive) | > 80 µM | 7.2 µM | 10.3 µM | –
12 | S=C(NCCCN1CCOCC1)Nc1ccc(Cl)cc1 | 13.7 µM | 14.5 µM | 16 µM | 13.7 µM | 7.62 µM | 9.33 µM | 11 µM | inactive | 12.9 µM | 118% | 11 µM | 26.5 µM | 26.5 µM | – | – | –
13 | Cc1ccc2oc(/N=C(\N)NC(=O)C(C)(C)C)nc2c1 | 19.8 µM | 20.9 µM | 19 µM | 23.9 µM | 11.2 µM | 12.3 µM | 13.4 µM | inactive | 16.7 µM | 106% | 16 µM | > 80 µM (inactive) | > 80 µM | – | – | –
14 | O=[N+]([O-])c1cc([N+](=O)[O-])c2cc3ccccc3nc2c1 | – | > 80 µM | > 80 µM | > 80 µM | – | > 80 µM | > 80 µM | > 80 µM (inactive) | > 80 µM | -64.9% | > 80 µM | > 80 µM (inactive) | > 80 µM | – | – | –
15 | O=C(Nc1nc(-c2ccccn2)cs1)Nc1ccc(F)cc1F | 8.6 µM | 9.05 µM | 9.65 µM | 8.89 µM | 8.74 µM | 10.1 µM | 11.5 µM | 11.4 µM | 8.93 µM | – | 11.5 µM | > 80 µM (inactive) | > 80 µM | 5.96 µM | 6.87 µM | –
16 | O=C1C=CC(=O)N1c1ccccc1N1C(=O)C=CC1=O | – | > 80 µM | > 80 µM | > 80 µM | – | > 80 µM | > 80 µM | > 80 µM (inactive) | > 80 µM | 42.9% | > 80 µM | > 80 µM (inactive) | > 80 µM | – | – | –
17 | Cc1nc2c(-c3ccc(Cl)cc3)c(C)[nH]n2c(=O)c1Cc1ccccc1 | – | > 80 µM | > 80 µM | > 80 µM | – | > 80 µM | > 80 µM | > 80 µM (inactive) | > 80 µM | -28.7% | > 80 µM | > 80 µM (inactive) | > 80 µM | – | – | –
18 | Cc1ccc(OCCn2c(NC(=O)c3ccco3)nc3ccccc32)cc1 | 11.3 µM | 10.3 µM | 8.87 µM | 10.8 µM | 4.28 µM | 3.98 µM | 3.68 µM | 6.41 µM | 6.79 µM | 146% | 7.16 µM | 32.8 µM | 32.8 µM | – | – | –
19 | CCN1/C(=C\C=C2\C(=O)N(c3ccccc3)C(=S)N2C)Sc2ccccc21 | 8.97 µM | 11.3 µM | 13.9 µM | 11 µM | 4.79 µM | 5.43 µM | 6.07 µM | 7.42 µM | 6.24 µM | 91.3% | 5.05 µM | > 80 µM (inactive) | > 80 µM | – | – | –
20 | Cc1cc(S(=O)(=O)c2ccc(Cl)cc2)nc(S(=O)(=O)c2ccc(Cl)cc2)c1C#N | 22.9 µM | 37 µM | 31.3 µM | 56.9 µM | – | 30.5 µM | 30.5 µM | inactive | 18.3 µM | 93.1% | 8.04 µM | inactive | 50.1 µM | – | – | –
21 | CCC(C)c1ccc(O)c(NC(=S)NC(=O)c2cccnc2)c1 (stereo not drawn) | 8.9 µM | 11.3 µM | 14.6 µM | 10.5 µM | 7.67 µM | 12 µM | 16.3 µM | inactive | 12.9 µM | – | 20.2 µM | inactive | 56 µM | 8.01 µM | 12.9 µM | –
22 | COc1ccc(C)c(-n2c(=O)n(Cc3ccccc3)c(=O)c3[nH]cnc32)c1 | 13.5 µM | 13.1 µM | 15.7 µM | 9.95 µM | 8.5 µM | 9.2 µM | 9.91 µM | inactive | 12.3 µM | – | 14 µM | 8.42 µM | 8.42 µM | 10.9 µM | 7.56 µM | –
